The values below come from article PMC4669382 (mBio, 2015).

The test system of data set [1] is C. albicans Bar1. Description: 127 nM C. albicans Bar1 in 50 µM potassium phosphate solution. The conditions noted are these: 37°C, up to 24 h.
For data set [2], the system named is Bar1(D232A). Briefly: 60 nM Bar1. The conditions noted are these: C. albicans, 37°C, up to 90 min.
The test system of data set [3] is Bar1(D232A). Description: 127 nM Bar1. The conditions noted are these: C. albicans, 37°C, up to 1 h.
Data set [4] deals with C. albicans Bar1. Description: Bar1 activity on bovine serum albumin. The format is biochemical, Candida albicans. The settings on record: tested at high protein concentrations, data not shown.
A further data set relates to S. cerevisiae Bar1. The settings on record: cited from earlier work.

Turning to AARLTNFGYFEPG, the cleaved bond result in the data set on C. albicans Bar1 [1] is “T5-N6, 1 h”.
Regarding GAALTNFGYFEPG, the cleaved bond result in the data set on C. albicans Bar1 [1] is given as “T5-N6, 1 h”.
Take GFAATNFGYFEPG: the cleaved bond entry in the data set with C. albicans Bar1 [1] is “T5-N6, 1 h”.
On the same count and under the same terms, in the case of GFRAANFGYFEPG it was “A5-N6, 1 h”.
The same measure, in the same setting: the result for GFRLAAFGYFEPG reads “A5-A6, 1 h”; that for GFRLTAAGYFEPG, “T5-A6, 1 h”; that for GFRLTNAAYFEPG, “T5-N6, 1 h”.
Still for that read-out and setting: the result for GFRLTNFAAFEPG reads “T5-N6, 1 h”.
On to GFRLTNFGAAEPG, for which the not cleaved entry with C. albicans Bar1 [1] was “no products were detected”.
The same measure, in the same setting: in the case of GFRLTNFGYAAPG it was “no products were detected”; in that of GFRLTNFGYEAAG, “no products were detected”; in that of GFRLTNFGYFEAA, “no products were detected”.
Take GFRLTNFGYFEPG: the not cleaved result is “no detectable cleavage activity” in the data set on Bar1(D232A) [2] and “no cleavage products were generated” in the data set with Bar1(D232A) [3]. Besides, in the data set with C. albicans Bar1 [1], the cleaved bond result was “threonine5-asparagine6, major, 1 h”.
As to KFKLTNFGYFEPG, in the data set with C. albicans Bar1 [1], the cleaved bond result is “Thr5-Asn6, 1 h”.
With “bovine serum albumin: bovine serum albumin tested as a Bar1 substrate”, in the data set with C. albicans Bar1 [4], the “Bar1 activity on protein substrate” value is “no detectable activity”.
For pepstatin A, the “sensitivity of S. cerevisiae Bar1 to inhibitor” value in the data set with S. cerevisiae Bar1 was “insensitive”.
